Measurements from patent publication US6613718B2, “Aryl ether derivatives and processes for their preparation and herbicidal and desiccant compositions containing them” (Ishihara Sangyo Kaisha, Ltd., priority 2001, dated 2003).

Key:
Type in all cases: in vivo
Settings in all cases: 14 days after application
[1] = tested on: green foxtail (Setaria viridis, SETVI); assay: Pre-emerge greenhouse herbicide activity screening, phytotoxicity rating
Excerpt: (§1) A standard greenhouse herbicide activity screening system was used to evaluate the herbicidal efficacy and crop safety of these test compounds. Seven broadleaf weed species including redroot pigweed (Amaranthus retroflexus, AMARE), velvetleaf (Abutilon theophrasti, ABUTH), sicklepod (Cassia obtusifolia, CASOB), ivyleaf morningglory (Ipomoea hederacea, IPOHE), lambsquarters (Chenopodium album, CHEAL), common ragweed (Ambrosia artemisiifolia L., AMBEL), and cocklebur (Xanthium strumarium, XANST) were used as test species. Four grass weed species including green foxtail (Setaria viridis, SETVI), barnyardgrass (Echinochloa crus-galli, ECHCG), johnsongrass (Sorghum halepense, SORHA), and large crabgrass (Digitaria sanguinalis, DIGSA) were also used. In addition, three crop species, field corn (Zea mays L., var. Dekalb 535, CORN), soybean (Glycine max L., var. Pella 86, SOY), and upland rice (Oryza sp., var.Tebonnet, RICE) were included.
(§2) All plants were grown in 10 cm square plastic pots which were filled with a sandy loam soil mix. For pre-emerge tests, seeds were planted one day prior to application of the test compounds. For post-emerge tests, seeds were planted 8-21 days prior to the test to allow emergence and good foliage development prior to application of the test substances. At the time of the post-emerge application, plants of all species were usually at the 2-3 leaf stage of development.
(§3) All test compounds were dissolved in acetone and applied to the test units in a volume of 187 1/ha. Test materials were applied at rates ranging from 15 g ai/ha to 1000 g ai/ha using a track sprayer equipped with a TJ8001E even flow flat fan spray nozzle. Plants were arranged on a shelf so that the top of the canopy (post-emerge) or top of the soil surface (pre-emerge) was 40-45 cm below the nozzle. Pressurized air was used to force the test solution through the nozzle as it was mechanically advanced (via electrically driven chain drive) over the top of all test plants/pots. This application simulates a typical commercial field herbicide application.
(§4) In the post-emerge test, a commercial non-ionic surfactant was also included (0.25% v/v) to enhance wetting of the leaf surfaces of target plants. Immediately after application, test units of the pre-emerge applications were watered at the soil surface to incorporate the test materials. Subsequently, these test units were bottom-watered. Post-emerge test units were always bottom-watered.
(§5) At 14 days after application of the test materials, phytotoxicity ratings were recorded. A rating scale of 0-100 was used as previously described in Research Methods in Weed Science, 2nd edition, B. Truelove, Ed., Southern Weed Science Society, Auburn University, Auburn, Ala., 1977. Briefly, “0” corresponds to no damage and “100” corresponds to complete death of all plants in the test unit. This scale was used both to determine efficacy against weed species and damage to crop species. Herbicide activity data for various compounds of this invention, which are shown by compound No. in Tables I-VI, are shown in Tables VIII-IX.

[2] = tested on: ivyleaf morningglory (Ipomoea hederacea, IPOHE); assay: as above
Excerpt: as §1, §2, §3, §4, §5

[3] = tested on: large crabgrass (Digitaria sanguinalis, DIGSA); assay: as above
Excerpt: as §1, §2, §3, §4, §5

[4] = tested on: johnsongrass (Sorghum halepense, SORHA); assay: as above
Excerpt: as §1, §2, §3, §4, §5

[5] = tested on: sicklepod (Cassia obtusifolia, CASOB); assay: as above
Excerpt: as §1, §2, §3, §4, §5

[6] = tested on: common ragweed (Ambrosia artemisiifolia L., AMBEL); assay: as above
Excerpt: as §1, §2, §3, §4, §5

[7] = tested on: velvetleaf (Abutilon theophrasti, ABUTH); assay: as above
Excerpt: as §1, §2, §3, §4, §5

[8] = tested on: lambsquarters (Chenopodium album, CHEAL); assay: as above
Excerpt: as §1, §2, §3, §4, §5

[9] = tested on: redroot pigweed (Amaranthus retroflexus, AMARE); assay: as above
Excerpt: as §1, §2, §3, §4, §5

[10] = tested on: barnyardgrass (Echinochloa crus-galli, ECHCG); assay: as above
Excerpt: as §1, §2, §3, §4, §5

[11] = tested on: field corn (Zea mays L., var. Dekalb 535, CORN); assay: Post-emerge greenhouse screening, crop safety / corn selectivity (phytotoxicity rating)
Excerpt: as §1, §2, §3, §4, §5

[12] = tested on: soybean (Glycine max L., var. Pella 86, SOY); assay: Post-emerge greenhouse screening, crop safety (phytotoxicity rating)
Excerpt: as §1, §2, §3, §4, §5

[13] = tested on: upland rice (Oryza sp., var.Tebonnet, RICE); assay: as above
Excerpt: as §1, §2, §3, §4, §5

[14] = tested on: green foxtail (Setaria viridis, SETVI); assay: Post-emerge greenhouse herbicide activity screening, phytotoxicity rating
Excerpt: as §1, §2, §3, §4, §5

[15] = tested on: ivyleaf morningglory (Ipomoea hederacea, IPOHE); assay: as above
Excerpt: as §1, §2, §3, §4, §5

[16] = tested on: large crabgrass (Digitaria sanguinalis, DIGSA); assay: as above
Excerpt: as §1, §2, §3, §4, §5

[17] = tested on: johnsongrass (Sorghum halepense, SORHA); assay: as above
Excerpt: as §1, §2, §3, §4, §5

[18] = tested on: sicklepod (Cassia obtusifolia, CASOB); assay: as above
Excerpt: as §1, §2, §3, §4, §5

[19] = tested on: common ragweed (Ambrosia artemisiifolia L., AMBEL); assay: as above
Excerpt: as §1, §2, §3, §4, §5

[20] = tested on: velvetleaf (Abutilon theophrasti, ABUTH); assay: as above
Excerpt: as §1, §2, §3, §4, §5

[21] = tested on: lambsquarters (Chenopodium album, CHEAL); assay: as above
Excerpt: as §1, §2, §3, §4, §5

[22] = tested on: redroot pigweed (Amaranthus retroflexus, AMARE); assay: as above
Excerpt: as §1, §2, §3, §4, §5

[23] = tested on: barnyardgrass (Echinochloa crus-galli, ECHCG); assay: as above
Excerpt: as §1, §2, §3, §4, §5

[24] = tested on: soybean (Glycine max L., var. Pella 86, SOY); assay: Pre-emerge greenhouse screening, crop safety (phytotoxicity rating)
Excerpt: as §1, §2, §3, §4, §5

[25] = tested on: field corn (Zea mays L., var. Dekalb 535, CORN); assay: as above
Excerpt: as §1, §2, §3, §4, §5

[26] = tested on: upland rice (Oryza sp., var.Tebonnet, RICE); assay: as above
Excerpt: as §1, §2, §3, §4, §5

## Cn1c(C(F)(F)F)cc(=O)n(-c2cc(Oc3ncccc3C(F)(F)F)c(Cl)cc2F)c1=S [Compound 1-15]
[1]; 125 g ai/ha
  SETVI phytotoxicity rating (0-100 scale): 100
[1]; 250 g ai/ha
  SETVI phytotoxicity rating (0-100 scale): 100
[2]; 125 g ai/ha
  IPOHE phytotoxicity rating (0-100 scale): 95
[2]; 250 g ai/ha
  IPOHE phytotoxicity rating (0-100 scale): 100
[3]; 125 g ai/ha
  DIGSA phytotoxicity rating (0-100 scale): 99
[3]; 250 g ai/ha
  DIGSA phytotoxicity rating (0-100 scale): 100
[4]; 125 g ai/ha
  SORHA phytotoxicity rating (0-100 scale): 60
[4]; 250 g ai/ha
  SORHA phytotoxicity rating (0-100 scale): 98
[5]; 125 g ai/ha
  CASOB phytotoxicity rating (0-100 scale): 55
[5]; 250 g ai/ha
  CASOB phytotoxicity rating (0-100 scale): 85
[6]; 125 g ai/ha
  AMBEL phytotoxicity rating (0-100 scale): 75
[6]; 250 g ai/ha
  AMBEL phytotoxicity rating (0-100 scale): 90
[7]; 125 g ai/ha
  ABUTH phytotoxicity rating (0-100 scale): 100
[7]; 250 g ai/ha
  ABUTH phytotoxicity rating (0-100 scale): 100
[8]; 125 g ai/ha
  CHEAL phytotoxicity rating (0-100 scale): 100
[8]; 250 g ai/ha
  CHEAL phytotoxicity rating (0-100 scale): 100
[9]; 125 g ai/ha
  AMARE phytotoxicity rating (0-100 scale): 100
[9]; 250 g ai/ha
  AMARE phytotoxicity rating (0-100 scale): 100
[10]; 125 g ai/ha
  ECHCG phytotoxicity rating (0-100 scale): 50
[10]; 250 g ai/ha
  ECHCG phytotoxicity rating (0-100 scale): 65
[11]; 125 g ai/ha
  CORN crop damage, phytotoxicity rating (0-100 scale): 5
[11]; 250 g ai/ha
  CORN crop damage, phytotoxicity rating (0-100 scale): 5
[12]; 125 g ai/ha
  SOY crop damage, phytotoxicity rating (0-100 scale): 10
[12]; 250 g ai/ha
  SOY crop damage, phytotoxicity rating (0-100 scale): 10
[13]; 125 g ai/ha
  RICE crop damage, phytotoxicity rating (0-100 scale): 0
[13]; 250 g ai/ha
  RICE crop damage, phytotoxicity rating (0-100 scale): 0
[14]; 125 g ai/ha
  SETVI phytotoxicity rating (0-100 scale): 0
[14]; 250 g ai/ha
  SETVI phytotoxicity rating (0-100 scale): 0
[15]; 125 g ai/ha
  IPOHE phytotoxicity rating (0-100 scale): 75
[15]; 250 g ai/ha
  IPOHE phytotoxicity rating (0-100 scale): 100
[16]; 125 g ai/ha
  DIGSA phytotoxicity rating (0-100 scale): 0
[16]; 250 g ai/ha
  DIGSA phytotoxicity rating (0-100 scale): 0
[17]; 125 g ai/ha
  SORHA phytotoxicity rating (0-100 scale): 0
[17]; 250 g ai/ha
  SORHA phytotoxicity rating (0-100 scale): 0
[18]; 125 g ai/ha
  CASOB phytotoxicity rating (0-100 scale): 60
[18]; 250 g ai/ha
  CASOB phytotoxicity rating (0-100 scale): 65
[19]; 125 g ai/ha
  AMBEL phytotoxicity rating (0-100 scale): 55
[19]; 250 g ai/ha
  AMBEL phytotoxicity rating (0-100 scale): 55
[20]; 125 g ai/ha
  ABUTH phytotoxicity rating (0-100 scale): 95
[20]; 250 g ai/ha
  ABUTH phytotoxicity rating (0-100 scale): 95
[21]; 125 g ai/ha
  CHEAL phytotoxicity rating (0-100 scale): 100
[21]; 250 g ai/ha
  CHEAL phytotoxicity rating (0-100 scale): 100
[22]; 125 g ai/ha
  AMARE phytotoxicity rating (0-100 scale): 90
[22]; 250 g ai/ha
  AMARE phytotoxicity rating (0-100 scale): 90
[23]; 125 g ai/ha
  ECHCG phytotoxicity rating (0-100 scale): 0
[23]; 250 g ai/ha
  ECHCG phytotoxicity rating (0-100 scale): 0
[24]; 125 g ai/ha
  SOY crop damage, phytotoxicity rating (0-100 scale): 0
[24]; 250 g ai/ha
  SOY crop damage, phytotoxicity rating (0-100 scale): 35
[25]; 125 g ai/ha
  CORN crop damage, phytotoxicity rating (0-100 scale): 8
[25]; 250 g ai/ha
  CORN crop damage, phytotoxicity rating (0-100 scale): 8
[26]; 125 g ai/ha
  RICE crop damage, phytotoxicity rating (0-100 scale): 0
[26]; 250 g ai/ha
  RICE crop damage, phytotoxicity rating (0-100 scale): 0
